Data from patent publication US9278922B2 (ABBVIE INC., priority 2009, dated 2016).

Tested on: HCV 1b-Con-1 replicon
Assay: HCV 1b-Con-1 replicon assay (luciferase reporter gene, HuH-7 cells)
Assay type: cell-based, Hepatitis C virus (HCV) genotype 1b-Con1
Conditions: Hepatitis C virus, Huh-7, luciferase reporter gene activity in the replicon, in the presence of 5% FBS

| SMILES | EC50 |
| --- | --- |
| COC(=O)N[C@H](C(=O)N1C[C@@H]2C[C@@H]2[C@H]1C(=O)Nc1ccc(CN(Cc2ccc(NC(=O)[C@@H]3[C@H]4C[C@H]4CN3C(=O)[C@@H](NC(=O)OC)C(C)(C)C)cc2)c2ccc(F)cc2)cc1)C(C)(C)C [Example 109, methyl [(1S)-1-{[(1S,2S,5R)-2-{[4-({(4-fluorophenyl)[4-({[(1S,2S,5R)-3-{(2S)-2-[(methoxycarbonyl)amino]-3,3-dimethylbutanoyl}-3-azabicyclo[3.1.0]hex-2-yl]carbonyl}amino)benzyl]amino}methyl)phenyl]carbamoyl}-3-azabicyclo[3.1.0]hex-3-yl]carbonyl}-2,2-dimethylpropyl]carbamate] | 10 to 100 nM |
| COC(=O)N[C@H](C(=O)N1CCC[C@H]1C(=O)Nc1ccc(CN(Cc2ccc(NC(=O)[C@@H]3CCCN3C(=O)[C@@H](NC(=O)OC)c3ccccc3)cc2)c2ccccc2)cc1)c1ccccc1 [Example 11, Dimethyl (1S,1′S)-2,2′-((2S,2′S)-2,2′-(4,4′-(phenylazanediyl)bis(methylene)bis(4,1-phenylene)bis(azanediyl))bis(oxomethylene)bis(pyrrolidine-2,1-diyl))bis(2-oxo-1-phenylethane-2,1-diyl)dicarbamate] | < 1 nM |
| COC(=O)N[C@H](C(=O)N1CCC[C@H]1c1nc2ccc(CN(Cc3ccc4nc([C@@H]5CCCN5C(=O)[C@@H](NC(=O)OC)[C@@H](C)O)[nH]c4c3)c3ccccc3)cc2[nH]1)[C@@H](C)O [Example 35, methyl [(1S,2R)-2-hydroxy-1-{[(2S)-2-(6-{[({2-[(2S)-1-{(2S,3R)-3-hydroxy-2-[(methoxycarbonyl)amino]butanoyl}pyrrolidin-2-yl]-1H-benzimidazol-6-yl}methyl)(phenyl)amino]methyl}-1H-benzimidazol-2-yl)pyrrolidin-1-yl]carbonyl}propyl]carbamate] | < 1 nM |
| COC(=O)N[C@H](C(=O)N1CCC[C@H]1C(=O)Nc1ccc(CN(Cc2ccc(NC(=O)[C@@H]3CCCN3C(=O)[C@@H](c3ccccc3)N3CCCCC3)cc2)c2ccc(F)cc2)cc1)[C@H]1CCOC1 [Example 114, methyl {(1S)-2-{(2S)-2-[(4-{[(4-fluorophenyl){4-[({(2S)-1-[(2R)-2-phenyl-2-piperidin-1-ylacetyl]pyrrolidin-2-yl}carbonyl)amino]benzyl}amino]methyl}phenyl)carbamoyl]pyrrolidin-1-yl}-2-oxo-1-[(3R)-tetrahydrofuran-3-yl]ethyl}carbamate] | < 1 nM |
| COC(=O)N[C@H](C(=O)N1CCC[C@H]1C(=O)Nc1ccc(CN(Cc2ccc(NC(=O)[C@@H]3CCCN3C(=O)[C@@H](NC(=O)OC)C(C)(C)O)cc2)c2ccc(F)cc2)cc1)C(C)(C)O [Example 98, dimethyl ([(4-fluorophenyl)imino]bis{methanediylbenzene-4,1-diylcarbamoyl(25)pyrrolidine-2,1-diyl[(2S)-3-hydroxy-3-methyl-1-oxobutane-1,2-diyl]})biscarbamate] | < 1 nM |
| COC(=O)N1CCOC[C@H]1C(=O)N1CCC[C@H]1C(=O)Nc1ccc(CN(Cc2ccc(NC(=O)[C@@H]3CCCN3C(=O)[C@@H]3COCCN3C(=O)OC)cc2)c2ccc(F)cc2)cc1 [Example 144, dimethyl (3S,3′S)-3,3′-{[(4-fluorophenyl)imino]bis[methanediylbenzene-4,1-diylcarbamoyl(2S)pyrrolidine-2,1-diylcarbonyl]}dimorpholine-4-carboxylate] | 100 to 250 nM |
| COC(=O)N[C@H](C(=O)N(C)[C@@H](C)C(=O)Nc1ccc(CN(Cc2ccc(NC(=O)[C@H](C)N(C)C(=O)[C@@H](NC(=O)OC)C(C)(C)C)cc2)c2ccccc2)cc1)C(C)(C)C [Example 47, dimethyl[(phenylimino)bis{methanediylbenzene-4,1-diylimino[(2S)-1-oxopropane-1,2-diyl](methylimino)[(2S)-3,3-dimethyl-1-oxobutane-1,2-diyl]}]biscarbamate] | 1 to 10 nM |
| O=C([C@@H](c1ccccc1)N1CCOCC1)N1CCC[C@H]1c1nc2cc(CN(Cc3ccc4[nH]c([C@@H]5CCCN5C(=O)[C@@H](c5ccccc5)N5CCOCC5)nc4c3)c3ccccc3)ccc2[nH]1 [Example 67, N,N-bis[(2-{(2S)-1-[(2R)-2-morpholin-4-yl-2-phenylacetyl]pyrrolidin-2-yl}-1H-benzimidazol-5-yl)methyl]aniline] | < 1 nM |
| COC(=O)N[C@H](C(=O)N1CCC[C@H]1C(=O)Nc1ccc(CN(Cc2ccc(NC(=O)[C@@H]3CCCN3C(=O)[C@@H](NC(=O)OC)C(C)(C)C)cc2)c2nccs2)cc1)C(C)(C)C [Example 19] | 10 to 100 nM |
| COC(=O)N[C@H](C(=O)N1CCC[C@H]1C(=O)Nc1ccc(CN(Cc2ccc(NC(=O)[C@@H]3CCCN3C(=O)[C@@H](NC(=O)OC)C3CCCC3)cc2)c2ccc(F)cc2)cc1)C1CCCC1 [Example 133, dimethyl ([(4-fluorophenyl)imino]bis{methanediylbenzene-4,1-diylcarbamoyl(2S)pyrrolidine-2,1-diyl[(1S)-1-cyclopentyl-2-oxoethane-2,1-diyl]})biscarbamate] | < 1 nM |
| COC(=O)N[C@H](C(=O)N1[C@H](C(=O)Nc2ccc(CN(Cc3ccc(NC(=O)[C@@H]4C[C@@H]5CCC[C@@H]5N4C(=O)[C@@H](NC(=O)OC)C(C)(C)C)cc3)c3ccc(F)cc3)cc2)C[C@@H]2CCC[C@@H]21)C(C)(C)C [Example 123, dimethyl ([(4-fluorophenyl)imino]bis{methanediylbenzene-4,1-diylcarbamoyl(2S,3aS,6aS)hexahydrocyclopenta[b]pyrrole-2,1(2H)-diyl[(2S)-3,3-dimethyl-1-oxobutane-1,2-diyl]})biscarbamate] | < 1 nM |
| CCN(C(C)=O)[C@@H](C(=O)N1CCC[C@H]1C(=O)Nc1ccc(CN(Cc2ccc(NC(=O)[C@@H]3CCCN3C(=O)[C@@H](c3ccccc3)N(CC)C(C)=O)cc2)c2ccc(F)cc2)cc1)c1ccccc1 [Example 122, (2S,2′S)-N,N′-{[(4-fluorophenyl)imino]bis(methanediylbenzene-4,1-diyl)}bis(1-{(2R)-2-[acetyl(ethyl)amino]-2-phenylacetyl}pyrrolidine-2-carboxamide)] | 10 to 100 nM |
| O=C([C@@H](c1ccccc1)N1CCCC1)N1CCC[C@H]1c1nc2cc(CN(Cc3ccc4[nH]c([C@@H]5CCCN5C(=O)[C@@H](c5ccccc5)N5CCCC5)nc4c3)c3ccccc3)ccc2[nH]1 [Example 66, N,N-bis[(2-{(2S)-1-[(2R)-2-phenyl-2-pyrrolidin-1-ylacetyl]pyrrolidin-2-yl}-1H-benzimidazol-5-yl)methyl]aniline] | < 1 nM |
| COC(=O)N[C@H](C(=O)N1CCC[C@H]1C(=O)Nc1ccc(CN(Cc2ccc(NC(=O)[C@@H]3CCCN3C(=O)[C@@H](NC(=O)OC)C(C)C)cc2)C2CCCC2)cc1)C(C)C [Example 27, dimethyl[(cyclopentylimino)bis{methanediylbenzene-4,1-diylcarbamoyl(2S)pyrrolidine-2,1-diyl[(2S)-3-methyl-1-oxobutane-1,2-diyl]}]biscarbamate] | 10 to 100 nM |
| CC[C@H](C)[C@H](NC(=O)OC(C)(C)C)C(=O)N1CCC[C@H]1C(=O)Nc1ccc(CN(Cc2ccc(NC(=O)[C@@H]3CCCN3C(=O)[C@@H](NC(=O)OC(C)(C)C)[C@@H](C)CC)cc2)c2ccccc2)cc1 [Example 41, di-tert-butyl[(phenylimino)bis{methanediylbenzene-4,1-diylcarbamoyl(2S)pyrrolidine-2,1-diyl[(2S,3S)-3-methyl-1-oxopentane-1,2-diyl]}]biscarbamate] | 10 to 100 nM |
| COC(=O)N[C@H](C(=O)N1C(C)CC[C@H]1C(=O)Nc1ccc(CN(Cc2ccc(NC(=O)[C@@H]3CCC(C)N3C(=O)[C@H](NC(=O)OC)C(C)(C)C)cc2)c2ccc(F)cc2)cc1)C(C)(C)C (stereo partly drawn) [Example 142, methyl [(1R)-1-{[(2S)-2-{[4-({(4-fluorophenyl)[4-({[(2S)-1-{(2S)-2-[(methoxycarbonyl)amino]-3,3-dimethylbutanoyl}-5-methylpyrrolidin-2-yl]carbonyl}amino)benzyl]amino}methyl)phenyl]carbamoyl}-5-methylpyrrolidin-1-yl]carbonyl}-2,2-dimethylpropyl]carbamate] | < 1 nM |
| COC(=O)N[C@H](C(=O)N1CCC[C@H]1C(=O)Nc1ccc(CN(Cc2ccc(NC(=O)[C@@H]3CCCN3C(=O)[C@@H](NC(=O)OC)C(C)C)cc2)c2ccccc2)cc1)C(C)C [Example 1] | < 1 nM |
| COC(=O)N[C@H](C(=O)N1CCC[C@H]1C(=O)Nc1ccc(CN(Cc2ccc3[nH]c([C@@H]4CCCN4C(=O)[C@@H](NC(=O)OC)C(C)C)nc3c2)c2ccccc2)cc1)C(C)C [Example 20] | < 1 nM |
| CN(C)[C@@H](C(=O)N1CCC[C@H]1c1nc2cc(CN(Cc3ccc4[nH]c([C@@H]5CCCN5C(=O)[C@@H](c5ccccc5)N(C)C)nc4c3)c3ccccc3)ccc2[nH]1)c1ccccc1 [Example 18, (2R,2′R)-1,1′-((2S,2′S)-2,2′-(5,5′-(phenylazanediyl)bis(methylene)bis(1H-benzo[d]imidazole-5,2-diyl))bis(pyrrolidine-2,1-diyl))bis(2-(dimethylamino)-2-phenylethanone)] | < 1 nM |
| COC(=O)N[C@H](C(=O)N1CCC[C@H]1C(=O)Nc1ccc(CN(Cc2ccc(NC(=O)[C@@H]3CCCN3C(=O)[C@@H](NC(=O)OC)[C@H]3CCOC3)cc2)c2ccccc2)cc1)[C@H]1CCOC1 [Example 39, dimethyl {(phenylimino)bis[methanediylbenzene-4,1-diylcarbamoyl(2S)pyrrolidine-2,1-diyl{(1S)-2-oxo-1-[(3R)-tetrahydrofuran-3-yl]ethane-2,1-diyl}]}biscarbamate] | < 1 nM |
| CCN(CC)[C@@H](C(=O)N1CCC[C@H]1C(=O)Nc1ccc(CN(Cc2ccc(NC(=O)[C@@H]3CCCN3C(=O)[C@@H](NC(=O)OC)C(C)(C)C)cc2)c2ccccc2)cc1)c1ccccc1 [Example 12, Methyl (S)-1-((S)-2-(4-(((4-((S)-1-((R)-2-(diethylamino)-2-phenylacetyl)pyrrolidine-2-carboxamido)benzyl)(phenyl)amino)methyl)phenylcarbamoyl)pyrrolidin-1-yl)-3,3-dimethyl-1-oxobutan-2-ylcarbamate] | < 1 nM |
